Key:
K562 tumor cell line = assay: Cytotoxicity of compound-cultured cells against K562; type: cell-based; settings: 10:1 E:T ratio
Procedure: (§1) For biological testing, the compounds were provided to culture to evaluate their effects on NK cell expansion and differentiation. Specifically, donors of CD34+ cells (StemCell Technology) were thawed and expanded in vitro following NK culture protocol. During the first 14 days of the culture, each CRL compounds was dissolved in DMSO and added to the culture at 10 μM concentration. SR1 (at 10 μM) served as a positive control compound, while DMSO alone without any compound served as a negative control. At the end of the culture on Day 35, cell expansion, natural killer (NK) cell differentiation and cytotoxicity of the cells against K562 tumor cell line were characterized. Due to the large number of the compounds, the testing was performed in two experiments, CRL1-11 and CRL 12-22. The same donors were used for each experiment. Positive and negative controls were also included in both experiments.
Cytotoxicity assay was run using compound cultured cells against K562 tumor cells at 10:1 effector to target ratio (FIGS. 5A-5B) to evaluate cell functions.

CD34+ cells [1] = assay: NK cell expansion in 35-day three-stage culture with CRL compounds; type: cell-based, human; settings: for cell expansion compared to SR1: 10 μM, Day 35; for expansion, differentiation and cytotoxicity profiles compared to SR1: PNK-007 culture
Source text: (§2) UCB CD34+ cells were cultivated in presence of cytokines including thrombopoietin, SCF, Flt3 ligand, IL-7, IL-15 and IL-2 for 35 days to produce three-stage NK cells, as described in Example 1. Multi-color flow cytometry was used to determine the phenotypic characteristics of three-stage NK cells.
as §1

CD34+ cells [2] = assay: NK cell differentiation of compound-cultured cells (flow cytometry); type: cell-based, human
Source text: as §2, §1

CD34 cells = assay: CD34 cell expansion at Day 14 of the culture with CRL compounds; type: cell-based, human; settings: 10 μM
Procedure: as §1

[3] = system: HER2+ NCI-N87 gastric tumor cell line; assay: Cytokine secretion assay (Luminex) of CD16 variants transduced CYNK cells with NCI-N87; type: cell-based
Procedure: Two-day in vitro recovered CYNK cells were used in this assay as the effector cells. The HER2^+ NCI-N87 gastric tumor cell line was used as the target cell. […] The supernatant was then collected after 24 h and used for downstream analysis. The cytokine concentrations were determined by Luminex analysis using a customer selected MILLIPLEX MAP magnetic bead kit (EMD Millipore, Billerica, MA, Cat #HCD8MAG-15K-07 for GM-CSF, TNF-α, and IFN-γ) according to the protocol provided by the manufacturer. The data were analyzed using Belysa software (Millipore Sigma).

CD16 [4] = assay: CD16VP shedding assay (PMA/ionomycin); type: cell-based, human
CD16 [5] = assay: CD16 expression of CD16 variants transduced CYNK cells (flow cytometry); type: cell-based, human
Procedure: (§3) Human placental CD34+ cells were transduced with a lentivirus vector expressing a CD16 variants as indicated and cultured for 35 days in the presence of cytokines, including thrombopoietin, SCF, Flt3 ligand, IL-7, IL-15 and IL-2, to generate CYNK cells.
The phenotype of CYNK cells was analyzed by multicolor flow cytometry. CYNK cells were washed and stained with fluorochrome-conjugated antibodies diluted in staining buffer [2% fetal bovine serum (FBS) in phosphate buffered saline (PBS)] according to the manufacturer's protocol. Dead cells were labelled with the Live/Dead Fixable Aqua Stain (Invitrogen, Cat #L34957) and gated out. Data were acquired on BD Fortessa X20 flow cytometer (BD Biosciences) and were analyzed using FlowJo software. The data were expressed as % positive cells gated under CD56+CD3-Aqua− single cells based on the viability staining used. Setting of the % positive gate was done using the corresponding isotype-stained samples as controls.

CD16 [6] = assay: NK surface markers and CD16 expression of PNK-CD16VP cells (flow cytometry, day 35); type: cell-based, human; settings: n=8
Procedure: Non-transduced PNK cells (NT) served as a control. […] IgG was used as ADCC control. In vivo anti-tumor activity was assessed in a Daudi disseminated Xenograft model in NSG mice. […] Tumor burden in mice was monitored by Bioluminescence Imaging (BLI). Statistical differences between the groups were calculated using paired t-test using Prism.
Cell Expansion and Characterization: Cell expansion was recorded during the culture process.

CD16 [7] = assay: Shedding assay of CD16 variants transduced CYNK cells (PMAi 2 h); type: cell-based, human; settings: for CD16 shedding percentage: post 2 h PMAi stimulation, n=6 donors, Lentigen LVV
Procedure: Non-transduced (NT) CYNK cells were used as a control. After 2-hour stimulation, cells from each treatment condition were then washed twice with FACS buffer (PBS with 0.5 mM EDTA and 2% FBS) and incubated human Fc block (BD Biosciences, Cat #564220) at room temperature for 10 minutes. Staining was then performed with anti-human CD16 PE (BD Biosciences, Cat #556619), anti-human CD56 APC (BD Biosciences, Cat #555518), and anti-human CD3 APC-H7 (BD Biosciences, Cat #560176), or with the corresponding isotype controls for 30 minutes at 4° C. Following washing 2× with FACS buffer the viability stain 7-Aminoactinomycin D (7-AAD) (BD Biosciences, Cat #559925) was added to all stained samples and incubated for ten minutes prior to data acquisition. The data was acquired on a […] (BD Biosciences, San Jose, CA) and analyzed in FlowJo (Tree Star, Ashland, OR). The data were expressed as % CD56^+CD16+ cells gated under 7-AAD^− cells. Setting of the % positive gate was done using isotype-stained samples as controls.

[8] = system: HER2+ NCI-N87 gastric tumor cell line; assay: xCELLigence real time cell analysis ADCC assay with trastuzumab against NCI-N87; type: cell-based; settings: 4 h and 24 h; E:T ratio of 2:1
Procedure: The HER2^+ NCI-N87 gastric tumor cell line was used as the target cells. CD16 variant transduced CYNK cells were thawed followed by two days recovery were used as the effector cells. […] Target cells were seeded at 8×10^4 cells/well in the 96-well plates in 100 μl assay buffer for 24 hours at 37° C. in 5% CO2. […] CYNK cells were added post 30 minutes antibodies incubation at 37° C. with 5% CO2.
The xCELLigence real time cell analysis (RTCA) system (ACEA Biosciences, San Diego, CA) was used for the determination of the ADCC response mediated by the combination of antibody and effector cells. This system can determine the real time proliferation or cell death in each well of a specialized 96-well plate with electrodes attached to the bottom E-plate by measuring cell adherence as determined by the impedance of the electrical signal that passes through the plate. The more cells that are attached to the bottom of the well the higher the resulting impedance or cell index that is measured. The cell index over time in wells with effector cells, antibody, and target is compared to the cell index in wells with target alone and is converted to a percent cytolysis.
Target cells were incubated with the effector cells in the presence of the antibodies in 200 μl final volume for 24 hours. The xCELLigence software was then used to determine the percent cytotoxicity at 4 and 24 hours of co-culture time.

[9] = system: human placental CD34+ cells; assay: Fold expansion of CD16 variants transduced CYNK cells; type: cell-based
Source text: as §3

[10] = in the presence of Trastuzumab, E:T ratio of 1:1
[11] = in the presence of trastuzumab and NCI-N87
[12] = MOI 200, Myc tag, Sirion Bio LVV

CC(C)c1csc2c(NCCc3c[nH]c4ccccc34)nc(-c3cncc(C#N)c3)nc12 [CRL17, 5-(4-((2-(1H-indol-3-yl)ethyl)amino)-7-isopropylthieno[3,2-d]pyrimidin-2-yl)nicotinonitrile]
killing activities compared to cells cultured with SR1 (K562 tumor cell line): increased killing activities | cell expansion compared to SR1 (CD34+ cells [1]): slightly less expansion | CD56+/CD11a+ subpopulation compared to SR1 (CD34+ cells [2]): increased

CC(C)c1csc2c(NCCc3c[nH]c4ccccc34)nc(-c3cncc(F)c3)nc12 [CRL18, N-(2-(1H-indol-3-yl)ethyl)-2-(5-fluoropyridin-3-yl)-7-isopropylthieno[3,2-d]pyrimidin-4-amine]
killing activities compared to cells cultured with SR1 (K562 tumor cell line): increased killing activities | cell expansion compared to SR1 (CD34+ cells [1]): slightly less expansion | CD56+/CD11a+ subpopulation compared to SR1 (CD34+ cells [2]): increased

Fc1cncc(-c2nc(NCCc3c[nH]c4ccccc34)c3occc3n2)c1 [CRL19, N-(2-(1H-indol-3-yl)ethyl)-2-(5-fluoropyridin-3-yl)furo[3,2-d]pyrimidin-4-amine]
CD34 cell expansion (CD34 cells): achieved the highest CD34 cell expansion | cell expansion compared to SR1 (CD34+ cells [1]): supported cell expansion the best | expansion, differentiation and cytotoxicity profiles compared to SR1 (CD34+ cells [1]): very similar

Cc1cncc(-c2nc(NCCc3c[nH]c4ccccc34)c3occc3n2)c1 [CRL20, N-(2-(1H-indol-3-yl)ethyl)-2-(5-methylpyridin-3-yl)furo[3,2-d]pyrimidin-4-amine]
CD34 cell expansion (CD34 cells): achieved the highest CD34 cell expansion | cell expansion compared to SR1 (CD34+ cells [1]): supported cell expansion the best | expansion, differentiation and cytotoxicity profiles compared to SR1 (CD34+ cells [1]): very similar

Cc1cncc(-c2nc(NCCc3c[nH]c4ccccc34)c3scc(C(C)C)c3n2)c1 [CRL21, N-(2-(1H-indol-3-yl)ethyl)-7-isopropyl-2-(5-methylpyridin-3-yl)thieno[3,2-d]pyrimidin-4-amine]
killing activities compared to cells cultured with SR1 (K562 tumor cell line): increased killing activities | cell expansion compared to SR1 (CD34+ cells [1]): slightly less expansion | CD56+/CD11a+ subpopulation compared to SR1 (CD34+ cells [2]): increased

N#Cc1cncc(-c2nc(NCCc3c[nH]c4ccccc34)c3occc3n2)c1 [CRL22, 5-(4-((2-(1H-indol-3-yl)ethyl)amino)furo[3,2-d]pyrimidin-2-yl)nicotinonitrile]
CD34 cell expansion (CD34 cells): achieved the highest CD34 cell expansion | cell expansion compared to SR1 (CD34+ cells [1]): supported cell expansion the best | expansion, differentiation and cytotoxicity profiles compared to SR1 (CD34+ cells [1]): very similar

CD16VP: high affinity (158 Val) and proteinase cleavage resistant (197Pro) CD16 variant
GM-CSF secretion against NCI-N87 [3, 10]: 5.4 ± 2.7 ng/1 × 10^6 cells | IFNg secretion against NCI-N87 [3, 10]: 1.8 ± 1.6 ng/1 × 10^6 cells | TNFa secretion against NCI-N87 [3, 10]: 0.8 ± 0.3 ng/1 × 10^6 cells | GM-CSF secretion compared to NT [3, 11]: significant difference | CD16VP expression after activation (CD16 [4]): resistant to shedding | CD16 expression (CD16 [5]; 6 donors): 61.9% ± 15.4% | CD16 expression (CD16 [6]): ~65% | CD16 shedding resistance post PMAi stimulation (CD16 [7]; 6 donors): Yes | CD16 shedding percentage (CD16 [7]): 4.3%±3.0% | cytotoxicity change (CYNK+Trastuzumab − CYNK+IgG) compared to NT [8]: significant difference

Construct #1: CD16 variant: 176 V (also referred to as 158 V); 197 Glycine (G); with or without Myc tag
GM-CSF secretion compared to NT [3, 11]: significant difference | cytokine secretion (IFNg, TNFa and GM-CSF) compared to CD16VP [3, 11]: no significant difference | fold expansion compared to CD16VP and NT ([9]; Lentigen LVV, n=6 donors): comparable fold expansion | fold expansion compared to CD16VP ([9]; Myc tag, Sirion Bio LVV): comparable fold expansion | CD16 expression at Day10, Day35 and post thaw compared to CD16VP (CD16 [5]; Lentigen LVV, 6 donors): comparable CD16 expression | CD16 expression at Day10, 21, 28, 35 and 40 compared to CD16VP (CD16 [5]; [12]): comparable CD16 expression | CD16 expression at Day 10 compared to CD16VP (CD16 [5]; [12]): comparable CD16 expression | CD16 shedding post PMAi stimulation (CD16 [7]; Myc tag, Sirion Bio LVV): trend of shedding resistance | CD16 shedding percentage (CD16 [7]): 9.4%±8.5% | cytotoxicity change (CYNK+Trastuzumab − CYNK+IgG) compared to NT [8]: significant difference
